# Experimental data from ChEMBL document CHEMBL4422680, “Synthesis, biological evaluation, and molecular docking study of novel allyl-retrochalcones as a new class of protein tyrosine phosphatase 1B inhibitors” (Bioorg Med Chem, 2019).
# Calls of active or inactive are those of the source. No cut-off for these calls is given here.
# Columns and labels:
# [1] = biological target: T1, Tyrosine-protein phosphatase non-receptor type 1 (Homo sapiens) (UniProt P18031); test: (§1) Inhibition of recombinant human PTP1B using pNPP as substrate measured after 30 mins
# T1 sequence (whole entry): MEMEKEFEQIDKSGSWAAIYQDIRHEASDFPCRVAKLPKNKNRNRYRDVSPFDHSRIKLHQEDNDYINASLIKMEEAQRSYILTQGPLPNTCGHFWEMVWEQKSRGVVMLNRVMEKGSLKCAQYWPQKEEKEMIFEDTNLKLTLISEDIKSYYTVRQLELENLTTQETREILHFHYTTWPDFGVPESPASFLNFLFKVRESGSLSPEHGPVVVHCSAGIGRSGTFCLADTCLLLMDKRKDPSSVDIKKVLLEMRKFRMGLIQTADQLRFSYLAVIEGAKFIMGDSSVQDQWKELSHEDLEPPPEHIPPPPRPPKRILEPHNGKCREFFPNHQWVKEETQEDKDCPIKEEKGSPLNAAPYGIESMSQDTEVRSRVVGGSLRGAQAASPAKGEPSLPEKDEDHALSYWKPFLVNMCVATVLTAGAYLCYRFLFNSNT
# [2] = biological target: T2, Tyrosine-protein phosphatase non-receptor type 1 (Homo sapiens, UniProt P18031); test: as §1
# T2 sequence (P18031 whole entry): T1 sequence (whole entry)
# [3] = biological target: T1, Tyrosine-protein phosphatase non-receptor type 1 (Homo sapiens); test: Potency index, ratio of […] IC50 to test compound IC50 for recombinant human PTP1B
# [4] = biological target: T1, Tyrosine-protein phosphatase non-receptor type 1 (Homo sapiens); test: Inhibition of PTP1B in human HepG2 cells assessed as suppression of PA-induced insulin resistance by measuring increase in IRS1 phosphorylation at 5 uM preincubated for 1 hr followed by PA-stimulation for 24 hrs and subsequent insulin measured by immunoblotting analysis; format: cell-based
# [5] = biological target: T1, Tyrosine-protein phosphatase non-receptor type 1 (Homo sapiens); test: Inhibition of PTP1B in human HepG2 cells assessed as suppression of PA-induced insulin resistance by measuring increase in AKT phosphorylation at 10 uM preincubated for 1 hr followed by PA-stimulation for 24 hrs and subsequent insulin measured by immunoblotting analysis; format: cell-based
# Mus musculus [6] = test: Protection against hyperglycemia-induced liver injury in db/db mouse assessed as reduction in serum AKP level at 10 to 20 mg/kg, po administered every other day for 10 weeks measured post last dose; format: functional, organism-based
# Mus musculus [7] = test: Protection against hyperglycemia-induced liver injury in db/db mouse assessed as reduction in serum ALT level at 10 to 20 mg/kg, po administered every other day for 10 weeks measured post last dose; format: functional, organism-based
# Mus musculus [8] = test: Protection against hyperglycemia-induced liver injury in db/db mouse assessed as reduction in serum total cholesterol level at 10 to 20 mg/kg, po administered every other day for 10 weeks measured post last dose; format: functional, organism-based
# Mus musculus [9] = test: Protection against hyperglycemia-induced liver injury in db/db mouse assessed as reduction in steatosis at 10 to 20 mg/kg, po administered every other day for 10 weeks measured post last dose by hematoxylin and eosin staining based light microscopic analysis; format: functional, organism-based
# Mus musculus [10] = test: Protection against hyperglycemia-induced liver injury in db/db mouse assessed as reduction in size and number of liver lipid droplets at 10 to 20 mg/kg, po administered every other day for 10 weeks measured post last dose by hematoxylin and eosin staining based light microscopic analysis; format: functional, organism-based
# Mus musculus [11] = test: Protection against hyperglycemia-induced liver injury in db/db mouse assessed as increase in IRS1 phosphorylation in liver at 10 to 20 mg/kg, po administered every other day for 10 weeks measured post last dose by immunoblotting analysis; format: functional, organism-based
# [12] = AUC (0 to t) in Sprague-Dawley rat at 2 mg/kg, iv administered as single dose by UPLC/MS/MS analysis; format: ADME, organism-based; details: in vivo
# [13] = AUC (0 to infinity) in Sprague-Dawley rat at 2 mg/kg, iv administered as single dose by UPLC/MS/MS analysis; format: ADME, organism-based; parameters: dose 2 mg/kg, route intravenous, time infinity; details: in vivo
# [14] = Apparent half-life of the terminal disposition phase in Sprague-Dawley rat at 2 mg/kg, iv administered as single dose by UPLC/MS/MS analysis; format: ADME, organism-based; details: in vivo, read-out: t1/2 lambda z (converted)
# [15] = Tmax in Sprague-Dawley rat at 2 mg/kg, iv administered as single dose by UPLC/MS/MS analysis; format: ADME, organism-based; details: in vivo
# [16] = Cmax in Sprague-Dawley rat at 2 mg/kg, iv administered as single dose by UPLC/MS/MS analysis; format: ADME, organism-based; parameters: dose 2 mg/kg, route intravenous; details: in vivo
# [17] = AUC (0 to t) in Sprague-Dawley rat at 20 mg/kg, ig administered as single dose by UPLC/MS/MS analysis; format: ADME, organism-based; details: in vivo, po
# [18] = AUC (0 to infinity) in Sprague-Dawley rat at 20 mg/kg, ig administered as single dose by UPLC/MS/MS analysis; format: ADME, organism-based; parameters: dose 20 mg/kg, time infinity, route […]; details: in vivo, po
# [19] = Apparent half-life of the terminal disposition phase in Sprague-Dawley rat at 20 mg/kg, ig administered as single dose by UPLC/MS/MS analysis; format: ADME, organism-based; details: in vivo, po, read-out: t1/2 lambda z (converted)
# [20] = Tmax in Sprague-Dawley rat at 20 mg/kg, ig administered as single dose by UPLC/MS/MS analysis; format: ADME, organism-based; details: in vivo, po
# [21] = Cmax in Sprague-Dawley rat at 20 mg/kg, ig administered as single dose by UPLC/MS/MS analysis; format: ADME, organism-based; parameters: dose 20 mg/kg, route […]; details: in vivo, po
# [22] = Drug uptake in Sprague-Dawley rat at 20 mg/kg, ig administered as single dose measured after 4 hrs by UPLC/MS/MS analysis; format: ADME, organism-based; details: in vivo, po
inhibition [1],IC50 ([2]; read-out: IC50),Structure (SMILES),also measured
Dose-dependent effect,6.9 µM,C=CCc1cc(/C=C/C(=O)c2cccc(N(C)C)c2)c(OC(C)C)cc1O,–
Dose-dependent effect,5.9 µM,C=CCc1cc(/C=C/C(=O)c2ccc(OCC=C(C)C)cc2)c(OC)cc1O,–
Dose-dependent effect,11.8 µM,C=CCc1cc(/C=C/C(=O)c2cc3c(cc2N(C)C)OCO3)c(OC)cc1O,–
–,32.8 µM,C=CCc1cc(/C=C/C(=O)c2ccc(OCCCC(=O)O)cc2)c(OC)cc1O,–
–,–,C=CCc1cc(/C=C/C(=O)c2cccc(O)c2)c(OC)cc1O,IC50 [2]: Not Active
Dose-dependent effect,3.9 µM,C=CCOc1ccc(C(=O)/C=C/c2cc(CC=C)c(O)cc2OC)c(OC)c1,–
Dose-dependent effect,14.6 µM,C=CCc1cc(/C=C/C(=O)c2cccc(OC)c2)c(OC)cc1O,–
–,–,C=CCOc1ccc(C(=O)/C=C/c2cc(CC=C)c(OC3CCCCO3)cc2OC)c(O)c1 (stereo not drawn),IC50 [2]: Not Active
Dose-dependent effect,3 µM,C=CCc1cc(/C=C/C(=O)c2ccc(OCC=C(C)C)cc2O)c(OC)cc1O,–
Dose-dependent effect,9.4 µM,C=CCc1cc(/C=C/C(=O)c2ccc(O)cc2)c(OC)cc1OC1CCCCO1 (stereo not drawn),–
Dose-dependent effect,7.4 µM,C=CCc1cc(/C=C/C(=O)c2ccc(OC)cc2)c(OC)cc1O,–
Dose-dependent effect,5.4 µM,C=CCOc1ccc(C(=O)/C=C/c2cc(CC=C)c(O)cc2OC)cc1,–
Dose-dependent effect,3.9 µM,C=CCc1cc(/C=C/C(=O)c2ccc(OCCCCC(=O)OCC)cc2)c(OC)cc1O,–
Dose-dependent effect,5.8 µM,C=CCc1cc(/C=C/C(=O)c2ccc(OCCCCC(=O)O)cc2)c(OC)cc1O,–
Dose-dependent effect,5.4 µM,C=CCc1cc(/C=C/C(=O)c2ccc(OC)c(C(C)C(=C)C)c2)c(OC)cc1O (stereo not drawn),–
Dose-dependent effect,12.3 µM,C=CCc1cc(/C=C/C(=O)c2ccc(N3CCOCC3)cc2)c(OC)cc1O,–
Dose-dependent effect,–,C=CC(C)(C)c1cc(/C=C/C(=O)c2ccc(O)cc2)c(OC)cc1O,–
Dose-dependent effect,6.5 µM,C=CCOc1ccc(C(=O)/C=C/c2cc(CC=C)c(O)cc2OC)c(O)c1,–
Dose-dependent effect,16.3 µM,C=CCc1cc(/C=C/C(=O)c2ccccc2N(C)C)c(OC)cc1O,–
Dose-dependent effect,0.57 µM,C=CCc1cc(/C=C/C(=O)c2cccc(N(C)C)c2)c(OC)cc1O,Ratio IC50 [3]: 6; inhibition [4]: Active; inhibition [5]: Active; Activity (Mus musculus [6]): Active; Activity (Mus musculus [7]): Active; Activity (Mus musculus [8]): Active; Activity (Mus musculus [9]): Active; Activity (Mus musculus [10]): Active; Activity (Mus musculus [11]): Active; AUC(0-t) [12]: 1.43 µg·h/mL; AUC(0-inf) [13]: 1.62 µg·h/mL; half-life [14]: 21.1 h; Tmax [15]: 4.8 min; Cmax [16]: 2.15 µg/mL; AUC(0-t) [17]: 0.584 µg·h/mL; AUC [18]: 0.60552 µg·h/mL; half-life [19]: 8.85 h; Tmax [20]: 14 h; Cmax [21]: 0.0462 µg/mL; Drug uptake [22]: Active
Dose-dependent effect,12.9 µM,C=CCc1cc(/C=C/C(=O)c2ccc(O)cc2)c(OC)cc1O,–

inhibition [1],IC50 ([2]; read-out: IC50),Structure (SMILES),also measured
Dose-dependent effect,8.2 µM,C=CCc1cc(/C=C/C(=O)c2ccc(OC)c(CC=C(C)C)c2)c(OC)cc1O,–
Dose-dependent effect,9.4 µM,C=CCc1cc(/C=C/C(=O)c2ccc(OCC(=O)OCC)cc2)c(OC)cc1O,–
Dose-dependent effect,6.9 µM,C=CCc1cc(/C=C/C(=O)c2ccc(N(C)C)cc2)c(OC)cc1O,–
Dose-dependent effect,25.6 µM,C=CCc1cc(/C=C/C(=O)c2ccc(OCCCC(=O)OCC)cc2)c(OC)cc1O,–
Dose-dependent effect,5.9 µM,C=CCc1cc(/C=C/C(=O)c2ccc(N(CC=C)CC=C)cc2)c(OC)cc1O,–
–,–,C=CCc1cc(/C=C/C(=O)c2cccc(NS(C)(=O)=O)c2)c(OC)cc1O,IC50 [2]: Not Active
Dose-dependent effect,6.3 µM,C=CCc1cc(/C=C/C(=O)c2ccc(-n3cccn3)cc2)c(OC)cc1O,–
Dose-dependent effect,4.6 µM,C=CCc1cc(/C=C/C(=O)c2ccc(OC(=O)c3ccccc3)cc2)c(OC)cc1O,–
Dose-dependent effect,7.2 µM,C=CCc1cc(/C=C/C(=O)c2cccc(N3CCCCC3)c2)c(OC)cc1O,–
Dose-dependent effect,6.6 µM,C=CCc1cc(/C=C/C(=O)c2ccc(OC(=O)c3ccc(Br)cc3)cc2)c(OC)cc1O,–
Dose-dependent effect,10.9 µM,C=CCc1cc(/C=C/C(=O)c2ccc(OC)c(CC=C)c2)c(OC)cc1O,–
Dose-dependent effect,5 µM,C=CCc1cc(/C=C/C(=O)c2cccc(N(C)C)c2)c(OCc2ccccc2)cc1O,–
Dose-dependent effect,5.3 µM,C=CCc1cc(/C=C/C(=O)c2ccc(OCC)cc2)c(OC)cc1O,–
Dose-dependent effect,24.8 µM,C=CCc1cc(/C=C/C(=O)c2ccc(OC)cc2O)c(OC)cc1O,–
Dose-dependent effect,9.5 µM,C=CCc1cc(/C=C/C(=O)c2ccccc2N2CCCCC2)c(OC)cc1O,–
Dose-dependent effect,6.9 µM,C=CCc1cc(/C=C/C(=O)c2ccc(N3CCCCC3)cc2)c(OC)cc1O,–
Dose-dependent effect,4.7 µM,C=CCc1cc(/C=C/C(=O)c2cccc(N(CC=C)CC=C)c2)c(OC)cc1O,–
Dose-dependent effect,5 µM,C=CCc1cc(/C=C/C(=O)c2ccc(OC(=O)c3ccc(C(C)(C)C)cc3)cc2)c(OC)cc1O,–
Dose-dependent effect,12.6 µM,C=CCc1cc(/C=C/C(=O)c2ccc(OCC(=O)O)cc2)c(OC)cc1O,–
Dose-dependent effect,–,C[C@H]1[C@H](C)CC[C@]2(C(=O)O)CC[C@]3(C)C(=CC[C@@H]4[C@@]5(C)CC[C@H](O)C(C)(C)[C@@H]5CC[C@]43C)[C@H]12,–
Dose-dependent effect,4 µM,C=C(C)[C@H](C)c1cc(/C=C/C(=O)c2ccc(O)cc2)c(OC)cc1O [LICOCHALCONE E],–
